In patent US20130005747A1, “METHOD FOR SELECTING A CANCER THERAPY” (Cyclacel Limited, priority 2010, published 2013):

How the values were obtained:
H1650 = assay: Cell line IC50 (Table 3); assay type: cell-based, human; details: Lung
H2052 = assay: Cell line IC50 (Table 3); assay type: cell-based, human; details: Mesothelioma
MCF7 = assay: Cell line IC50 (Table 3); assay type: cell-based, human; details: Ras WT, Breast
NCI-H460 = assay: Cell line IC50 (Table 3); assay type: cell-based, human; details: K-Ras Q61H, Lung
cell lines of Table 3 = assay: Cell line panel of Table 3, summary over cell lines; assay type: cell-based, human; details: median over the cell lines of Table 3
MDA-MB-436 = assay: Cell line IC50 (Table 3); assay type: cell-based, human; details: Ras WT, Breast
A549 = assay: Cell line IC50 (Table 3); assay type: cell-based, human; details: K-Ras G12S, Lung
NCI-H929 = assay: Cell line IC50 (Table 3); assay type: cell-based, human; details: N-Ras, Myeloma
H358 = assay: Cell line IC50 (Table 3); assay type: cell-based, human; details: Lung
LoVo = assay: Cell line IC50 (Table 3); assay type: cell-based, human; details: K-Ras G13D, Colon
H292 = assay: Cell line IC50 (Table 3); assay type: cell-based, human; details: Lung
MESSA = assay: Cell line IC50 (Table 3); assay type: cell-based, human; details: Ras WT, sarcoma
A2780 = assay: Cell line IC50 (Table 3); assay type: cell-based, human; details: Ras WT, Ovary
Colo205 = assay: Cell line IC50 (Table 3); assay type: cell-based, human; details: Colon
Saos-2 = assay: Cell line IC50 (Table 3); assay type: cell-based; details: Homo sapiens, Ras WT, Osteosarcoma
CDK = CDK inhibitory profile; assay type: biochemical; details: compared with roscovitine
HT-29 = assay: Cell line IC50 (Table 3); assay type: cell-based; details: Homo sapiens, Ras WT, Colon
LP-1 = assay: Cell line IC50 (Table 3); assay type: cell-based; details: Homo sapiens, Ras WT, Myeloma
HCT 116 = assay: Cell line IC50 (Table 3); assay type: cell-based; details: Homo sapiens, K-Ras G13D, Colon
[1] = Homo sapiens, NCI-H1650, Ras WT
[2] = Homo sapiens, NCI-H2052, Ras WT
[3] = Homo sapiens, NCI-H358, K-Ras G12C

Row | IC50 (H1650; [1]) [µM] | IC50 (H2052; [2]) [µM] | IC50 (Saos-2) [µM] | IC50 (MCF7; Homo sapiens) [µM] | IC50 (NCI-H460; Homo sapiens) [µM] | IC50 (cell lines of Table 3; Homo sapiens) [µM] | IC50 (HT-29) [µM] | IC50 (MDA-MB-436; Homo sapiens) [µM] | IC50 (A549; Homo sapiens) [µM] | IC50 (NCI-H929; Homo sapiens) [µM] | IC50 (H358; [3]) [µM] | IC50 (LoVo; Homo sapiens) [µM] | IC50 (H292; Homo sapiens, NCI-H292, Ras WT) [µM] | IC50 (MESSA; Homo sapiens, MES-SA) [µM] | IC50 (A2780; Homo sapiens) [µM] | IC50 (Colo205; Homo sapiens, COLO 205, Ras WT) [µM] | IC50 (LP-1) [µM] | IC50 (HCT 116) [µM] | Compound | CDK inhibitory profile (in words) (CDK) | also measured
1 | – | – | – | – | – | – | – | – | – | – | – | – | – | – | – | – | – | – | CC[C@H](Nc1nc(NCc2cnc(C)cc2C)c2ncn(C(C)C)c2n1)[C@@H](C)O [Compound A] | – | IC50 (H1650; Ras WT): 0.5 µM; IC50 (H2052; Ras WT): 0.3 µM; IC50 (MCF7): 0.3 µM; IC50 (NCI-H460): 0.5 µM; IC50 (cell lines of Table 3): 0.4 µM; IC50 (MDA-MB-436): 0.4 µM; IC50 (A549): 0.2 µM; IC50 (NCI-H929): 0.4 µM; IC50 (H358; K-Ras G12C): 0.2 µM; IC50 (LoVo): 0.7 µM; IC50 (H292; Ras WT): 0.4 µM; IC50 (MESSA): 0.2 µM; IC50 (A2780): 0.4 µM; IC50 (Colo205; Ras WT): 0.3 µM
2 | 6.5 | 5.2 | 5.3 | 3.6 | 2.8 | 4.5 | 4.1 | 6.6 | 3 | 5.2 | 2.7 | 4.5 | 6.6 | 3.6 | 2.6 | 4.5 | – | – | CC[C@@H](Nc1nc(NCc2cccnc2)c2ncn(C(C)C)c2n1)C(C)(C)O [Compound B, (3R)-3-{9-isopropyl-6-[(pyridin-3-ylmethyl)-amino]-9H-purin-2-ylamino}-2-methyl-pentan-2-ol] | very similar CDK inhibitory profiles to roscovitine | –
3 | 3.7 | 2.4 | 2.5 | 1.6 | 2.2 | 2.2 | 1.7 | 3.4 | 1.6 | 2.4 | 0.8 | 2.2 | 2.3 | 1.6 | 1.1 | 2.3 | 1.6 | 1.6 | CC[C@H](Nc1nc(NCc2cccnc2)c2ncn(C(C)C)c2n1)C(C)(C)O [Compound C, (3S)-3-{9-isopropyl-6-[(pyridin-3-ylmethyl)-amino]-9H-purin-2-ylamino}-2-methyl-pentan-2-ol] | very similar CDK inhibitory profiles to roscovitine | –
4 | 1.2 | 0.9 | 1.4 | 0.4 | 0.7 | 0.8 | 1.2 | 1 | 0.5 | 0.8 | 0.3 | 0.8 | 0.9 | 0.5 | 0.4 | 0.8 | 0.5 | 0.4 | CC[C@H](Nc1nc(NCc2cccnc2)c2ncn(C(C)C)c2n1)[C@@H](C)O [Compound D, (2R,3S)-3-({9-isopropyl-6-[(pyridin-3-ylmethyl)amino]-9H-purin-2-yl}amino)pentan-2-ol] | very similar CDK inhibitory profiles to roscovitine | –
